The text below walks through data of patent US20220373535A1, “METHODS OF IDENTIFICATION OF SYNERGISTIC ANTI-CANCER MULTIDRUG COMBINATIONS AND USES THEREOF” (UNIVERSITE DE GENEVE, priority 2019, published 2022).

Assay [1] concerns 786-O cells. The assay can be described thus: in vitro cell viability bioassay measuring cell metabolic activity (CellTiterGlo). It counts as cell-based, human. The note with it: for IC20: ED20 (or lower, based on clinically attainable plasma concentrations), highest dose for combinatorial screening; for EC50: 786-0, dose that inhibited 50% of cell viability vs control, 72 h treatment, read-out: ED50 (the source's name). As for the experimental part:
Seeding density was 2-10×10^3cells/well, depending on the cell line's growth characteristics such that the control cells approach confluency at the time of the assay readout. Subsequently, cell viability was assessed using the CellTiterGlo® luminescence assay (Promega, Madison, Wis., USA) and cell viability was reported as the luminescence signal in the treated wells normalized to the signal in the DMSO treated control wells. Dose-response curves and IC50 values were determined in Graphpad Prism® using a four-parameter non-linear fit of the log transformed dose data of each compound.

The test system of assay [2] is 786-O cells. The assay can be described thus: mitosis live cell imaging (SiR-tubulin). The format is cell-based, human. The note with it: single drug alone. How it is done:
In order to test whether C2 treatment affects cell division, this process was monitored by live cell imaging. 786-O cells were treated with 0.1% DMSO in the cell culture medium (CTRL) or C2 and stained with the live cell dye SiR-tubulin (microtubule marker) to label the mitotic spindle, monitor mitotic progression and detect any cytokinesis failure. All experiments were performed in the presence of Valspodar (4 μM), a multi-drug pump inhibitor that prevented SiR-tubulin removal from the cell (this concentration of Valspodar had no effect on the efficacy of C2). Live cells were recorded for 24 hours at a temporal resolution of 3 minutes (FIG. 7A).
20 points were taken per condition.

The subject of the next assay is COLO-205 cells. The assay can be described thus: cell metabolic activity assay (CellTitre-Glo), CRC line. It counts as cell-based. The note with it: COLO-205, CIN and high centrosome numbers. As for the experimental part:
C2 and the individual drugs present in C2 were assayed in a cell metabolic activity assay (CellTitre-Glo) where the bioluminescence was detected, to the following cell panel: two MIN (microsatellite instability) cell lines (HCT-116 and DLD1), two CIN (chromosomal instability) cell lines (SW480 and SW620), COLO205 (CIN and high centrosome numbers), HT29 (CIN and replication stress induced centriole dis-engagement), CCD841 (non-malignant colon cell line; negative control) and 786-O (renal carcinoma cell line; positive control).

For `Cn1c(=O)n(-c2ccc(C(C)(C)C#N)cc2)c2c3cc(-c4cnc5ccccc5c4)ccc3ncc21` [BEZ-235], the IC20 in the assay on 786-O cells [1] (Homo sapiens, 786-0, 72 h) turned out to be 20 nM. Also, the EC50 in the assay on 786-O cells [1] (Homo sapiens) turned out to be 90 nM.

As to `CC(=O)Nc1ccc(C(=O)Nc2ccccc2N)cc1` [CI-994, 4-(Acetylamino)-N-(2-aminophenyl)benzamide], the IC20 in the assay with 786-O cells [1] (Homo sapiens, 786-0, 72 h) came out at 1000 nM. The EC50 with 786-O cells [1] (Homo sapiens) is 11500 nM.

Turning to `Cc1[nH]c2ccccc2c1CCNCc1ccc(/C=C/C(=O)NO)cc1` [LBH-589], the concentration for an effect of 20% (IC20) in the assay on 786-O cells [1] (Homo sapiens, 786-0, 72 h) stood at 2 nM. The EC50 in the assay with 786-O cells [1] (Homo sapiens) was 10 nM.

In the case of `O=C(CCCCCCC(=O)Nc1ccccc1)NO` [SAHA], the IC20 in the assay on 786-O cells [1] amounted to 1000 nM.

Turning to `Cc1cc(Nc2cc(N3CCN(C)CC3)nc(Sc3ccc(NC(=O)C4CC4)cc3)n2)[nH]n1` [VX-680], the IC20 in the assay on 786-O cells [1] (Homo sapiens, 786-0, 72 h) was found to be 650 nM. The EC50 in the assay with 786-O cells [1] (Homo sapiens) turned out to be 33000 nM.

In the case of `CNC(=O)c1ccccc1Sc1ccc2c(/C=C/c3ccccn3)n[nH]c2c1` [axitinib], the 20% effect concentration (IC20) in the assay on 786-O cells [1] (Homo sapiens, 786-0, 72 h) was found to be 200 nM.

Consider `Cc1nc(Nc2ncc(C(=O)Nc3c(C)cccc3Cl)s2)cc(N2CCN(CCO)CC2)n1` [dasatinib, N-(2-chloro-6-methylphenyl)-2-[[6-[4-(2-hydroxyethyl)piperazin-1-yl]-2-methylpyrimidin-4-yl]amino]-1,3-thiazole-5-carboxamide], for which the concentration for an effect of 20% (IC20) in the assay with 786-O cells [1] (Homo sapiens, 786-0, 72 h) is 50 nM. In the assay on 786-O cells [1] (Homo sapiens), the EC50 amounted to 100 nM.

Consider `C#Cc1cccc(Nc2ncnc3cc(OCCOC)c(OCCOC)cc23)c1` [erlotinib, N-(3-Ethynylphenyl)-6,7-bis(2-methoxyethoxy) quinazolin-4-amine], for which the IC20 with 786-O cells [1] (Homo sapiens, 786-0, 72 h) amounted to 2000 nM. Also, in the assay on 786-O cells [1] (Homo sapiens), the EC50 was found to be 6600 nM. Besides, in the assay on 786-O cells [2], the “effect on mitosis duration” value is given as “small delay in mitosis”.

In the case of `CNC(=O)c1cc(Oc2ccc(NC(=O)Nc3ccc(Cl)c(C(F)(F)F)c3)cc2)ccn1` [sorafenib], the IC20 with 786-O cells [1] (Homo sapiens, 786-0, 72 h) is 10 nM.

With `O=C(CCCCCCC(=O)Nc1ccc([C@H]2O[C@@H](CSc3nc(-c4ccccc4)c(-c4ccccc4)o3)C[C@@H](c3ccc(CO)cc3)O2)cc1)NO` [tubacin, N-(4-{(2R,4R,6S)-4-{[(4,5-diphenyl-1,3-oxazol-2-yl)sulfanyl]methyl}is [4-(hydroxymethyl)phenyl]-1,3-dioxan-2-yl}phenyl)-N′-hydroxyoctanediamide], in the assay with COLO-205 cells, the “killing / toxicity (cell metabolic activity)” value is listed as “partial toxicity”. Moreover, the 20% effect concentration (IC20) in the assay on 786-O cells [1] (Homo sapiens, 786-0, 72 h) came out at 2000 nM. In addition, the EC50 in the assay on 786-O cells [1] (Homo sapiens) stood at 6000 nM. The “effect on mitosis duration” value with 786-O cells [2] was “small delay in mitosis”.
